According to patent publication US20250179047A1, “5-[7-(3,4-DIHYDRO-1H-ISOQUINOLINE-2-CARBONYL)-1,2,3,4 TETRAHYDROISOQUINOLIN-6-YL]-1H-PYRROLE-3-CARBOXAMIDE DERIVATIVES, PHARMACEUTICAL COMPOSITIONS CONTAINING THEM AND THEIR USES AS PRO-APOPTOTIC AGENTS” (LES LABORATOIRES SERVIER, priority 2022, published 2025):
pKi: −log10 of the molar value.

How the values were obtained:
[1] = biological target: BCL2 WT (Homo sapiens (Human), UniProt P10415); assay: TR-FRET competitive binding assay, BCL2 WT; conditions: Ki determined from IC50, read-out: TR_FRET EKI_Bcl2 WT
Outline: (§1)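 Terbium-labelled N-terminal Halo-fusion BCL2 or BCLXL (E. coli), 0.5 nM, competed against fluorescein-labelled PUMA peptide (2 or 20 nM) for 2 h at 23° C in 50 mM Hepes pH 7.5, 150 mM NaCl, 5% DMSO. TR-FRET 520/495 nm ratio gave IC50 by four-parameter fit; Ki derived from IC50.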

[2] = biological target: BCL2 G101V (Homo sapiens, UniProt P10415, G101V); assay: TR-FRET competitive binding assay, BCL2 G101V; conditions: BCL2 G101V; Ki determined from IC50; read-out: TR_FRET EKI_Bcl2 G101V
Outline: as §1

[3] = test system: BCL2 G101V; assay: TR-FRET competitive binding assay, BCL2 G101V; set-up: species or system human; conditions: ratio Ki BCL2 G101V / Ki BCL2 WT
Outline: as §1

[4] = biological target: BCL2 D103Y (Homo sapiens, UniProt P10415, D103Y); assay: TR-FRET competitive binding assay, BCL2 D103Y; conditions: Ki determined from IC50, read-out: TR_FRET EKI_Bcl2 D103Y
Outline: as §1

[5] = biological target: BCL2 F104I (Homo sapiens, UniProt P10415, F104I); assay: TR-FRET competitive binding assay, BCL2 F104I; conditions: Ki determined from IC50, read-out: TR_FRET EKI_Bcl2 F104I
Outline: as §1

[6] = biological target: BCL2 D111A (Homo sapiens, UniProt P10415, D111A); assay: TR-FRET competitive binding assay, BCL2 D111A; conditions: Ki determined from IC50, read-out: TR_FRET EKI_Bcl2 D111A
Experimental: The relative binding potency of each compound was determined in a competitive binding assay using time resolved-fluorescence resonance energy transfer (TR-FRET). The method utilised a fluorescein labelled peptide derived from PUMA (5Flu-Ahx-[…]-NH2 wherein Ahx means 6-hexanoic acid monomer and the amino acid sequence is referred to as SEQ ID:01) which binds to a terbium labelled BCL2 or BCLXL protein. The degree of binding or corresponding compound inhibition can be quantified by the TR-FRET signal between the terbium donor and fluorescein acceptor.
The human BCL2_wild-type (also named BCL2_wt), BCL2_G101V mutant and BCLXL_wild-type were E. coli expressed as a N-terminal Halo-fusion proteins and singly labelled with Terbium on the Halo protein to afford the following amino acid sequences:
wherein the BCL2(1-207) sequence corresponds to UniProtKB® primary accession number P10415 and the BCLXL(2-196) sequence corresponds to UniProtKB® primary accession number Q07817-1.
The assay was performed in a 40 μL volume in white 384-standard well plates (Corning #3574). An 11-point serial dilution of each compound was prepared in DMSO and transferred directly to plate followed by addition of fluorescein labelled peptide and lastly protein. Final assay conditions were 0.5 nM BCL2_wt, BCL2_G101V, BCL2_D103Y, BCL2_F104I, BCL2_D111A or BCLXL_wt, 2 or 20 nM fluorescein labelled peptide, 50 mM Hepes pH 7.5, 150 mM NaCl, 0.5 mM TCEP (Tris(2-carboxyethyl)phosphine), 0.05% Tween 20, 5% DMSO. The mixture was incubated for 2 hours at 23° C.
TR-FRET measurements were performed on a Biotek Synergy Neo plate reader. TR-FRET was measured by excitation of the Terbium-donor at 340 nm and subsequent (delay time 100 μs) measurement of terbium and fluorescein emission at 495 nm and 520 nm, respectively, over a collection time of 300 μs. The TR-FRET signal was calculated as the emission-ratio at 520 nm over 495 nm.
The TR-FRET ratio readout for test compounds was normalized against 0% inhibition controls wells and 100% inhibition control wells. Test compound potency (IC50) was estimated by nonlinear regression using the sigmoidal dose-response (variable slope) using Xlfit 4 (IDBS, Guildford, Surrey, UK, model 205). Were the IC50 could not be determined the % inhibition at the highest tested concentration is given.
y=(A+((B−A)/(1+((C/x)^D))))
where y is the normalized TR-TRET ratio measurement for a given concentration of test compound, x is the concentration of test compound, A is the estimated efficacy (% inhibition) at infinite compound dilution, and B is the maximal efficacy (% inhibition). C is the IC50 value and D is the Hill slope coefficient.
The K1 values were determined from the IC50 values according to Cer et al, Nucleic Acids Res, 2009, July 1; 37 (WebServer issue): W441-W445.

[7] = biological target: BCLXL WT (Homo sapiens (Human), UniProt Q07817); assay: TR-FRET competitive binding assay, BCLXL WT; conditions: for pKi: BCLXL WT, Ki determined from IC50, read-out: TR_FRET EKI BclxL; for TR_FRET EKI BCLxL/WT selectivty ratio: ratio Ki BCLxL / Ki BCL2 WT
Outline: as §1

[8] = test system: KMS-12-PE Bcl-2 WT; assay: In vitro cytotoxicity CellTiter-Glo 48 h, KMS-12-PE Bcl-2 WT; type: cell-based; conditions: Homo sapiens, KMS-12-PE, C50 = concentration needed to reach 50% of the cellular viability
Outline: (§2)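 Potency is expressed as C50, the compound concentration at which viability of engineered KMS-12-PE cells (Bcl-2 wild type or G101V) falls to 50%, determined from CellTiter-Glo luminescence after 48 h of treatment over 11 concentrations.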

[9] = test system: KMS-12-PE Bcl-2 G101V; assay: In vitro cytotoxicity CellTiter-Glo 48 h, KMS-12-PE Bcl-2 G101V; type: cell-based; conditions: for Ratio (G101V/WT): C50 KMS-12-PE Bcl-2 G101V over C50 KMS-12-PE Bcl-2 WT; for IC50: Homo sapiens, KMS-12-PE, 48 h, CellTiter-Glo, C50 = concentration needed to reach 50% of the cellular viability
Outline: as §2

Sequence of BCLXL WT (Q07817 other isoform, or with tags, fused parts or gaps): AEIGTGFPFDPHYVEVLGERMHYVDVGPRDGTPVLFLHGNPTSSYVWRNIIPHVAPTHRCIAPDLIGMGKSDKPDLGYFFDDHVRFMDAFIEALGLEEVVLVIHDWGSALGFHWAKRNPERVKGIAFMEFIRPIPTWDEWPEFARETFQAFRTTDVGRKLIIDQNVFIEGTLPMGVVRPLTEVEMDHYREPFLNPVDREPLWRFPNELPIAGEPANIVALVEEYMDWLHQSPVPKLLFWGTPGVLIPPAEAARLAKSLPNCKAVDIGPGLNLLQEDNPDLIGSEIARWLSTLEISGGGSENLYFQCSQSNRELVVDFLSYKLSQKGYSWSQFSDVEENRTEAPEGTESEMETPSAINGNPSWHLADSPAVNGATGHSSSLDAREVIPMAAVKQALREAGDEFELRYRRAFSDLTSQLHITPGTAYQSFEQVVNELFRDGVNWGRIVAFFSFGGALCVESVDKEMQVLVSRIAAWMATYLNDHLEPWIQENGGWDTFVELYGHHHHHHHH

Row | Compound | pKi [1] | pKi [2] | TR_FRET EKI G101V/WT selectivty ratio [3] | pKi [4] | pKi [5] | pKi [6] | pKi [7] | TR_FRET EKI BCLxL/WT selectivty ratio [7] | IC50 [8] [µM] | Ratio (G101V/WT) [9] | IC50 [9] [µM]
1 | Cc1c(N(C(=O)c2cc(-c3cc4c(cc3C(=O)N3Cc5ccccc5C[C@H]3C)CN(C(=O)Cc3ccc(OCCN(C)C5CC5)cc3)CC4)n3c2CCCC3)c2ccc(O)cc2)cc(C#N)n1C [Example 35, N-(5-cyano-1,2-dimethyl-pyrrol-3-yl)-3-[2-[2-[4-[2-[cyclopropyl(methyl)amino]ethoxy]phenyl]acetyl]-7-[(3R)-3-methyl-3,4-dihydro-1H-isoquinoline-2-carbonyl]-3,4-dihydro-1H-isoquinolin-6-yl]-N-(4-hydroxyphenyl)-5,6,7,8-tetrahydroindolizine-1-carboxamide] | 9.59 | 9.15 | 2.6 | 8.87 | 9.11 | 9.57 | 8.59 | 10.0 | 0.0068 | 3.75 | 0.0254
2 | Cc1c(N(C(=O)c2cc(-c3cc4c(cc3C(=O)N3Cc5ccccc5C[C@H]3C)CN(C(=O)Cc3ccc(OCCN5CCN6CCOC[C@@H]6C5)cc3)CC4)n(C)c2C)c2ccc(O)cc2)cc(C#N)n1C [Example 36, 5-{2-[2-(4-{2-[(9aS)-octahydropyrazino[2,1-c][1,4]oxazin-8-yl]ethoxy}phenyl)acetyl]-7-[(3R)-3-methyl-1,2,3,4-tetrahydroisoquinoline-2-carbonyl]-1,2,3,4-tetrahydroisoquinolin-6-yl}-N-(5-cyano-1,2-dimethyl-1H-pyrrol-3-yl)-N-(4-hydroxyphenyl)-1,2-dimethyl-1H-pyrrole-3-carboxamide] | 9.96 | 9.52 | 2.5 | 9.48 | 9.80 | 10.22 | 8.85 | 12.7 | 0.0103 | 3.75 | 0.0386
3 | Cc1c(N(C(=O)c2cc(-c3cc4c(cc3C(=O)N3Cc5ccccc5C[C@H]3C)CN(C(=O)Cc3ccc(CCN5CCOCC5)cc3)CC4)n(C)c2C)c2ccc(O)cc2)cc(C#N)n1C [Example 38, N-(5-cyano-1,2-dimethylpyrrol-3-yl)-N-(4-hydroxyphenyl)-1,2-dimethyl-5-(7-{[(3R)-3-methyl-3,4-dihydro-1H-isoquinolin-2-yl]carbonyl}-2-(2-{4-[2-(morpholin-4-yl)ethyl]phenyl}acetyl)-3,4-dihydro-1H-isoquinolin-6-yl)pyrrole-3-carboxamide] | 10.00 | 9.30 | 4.8 | 9.49 | 9.09 | 9.82 | 9.00 | 10.0 | 0.0091 | 5.57 | 0.0509
4 | Cc1c(N(C(=O)c2cc(-c3cc4c(cc3C(=O)N3Cc5ccccc5C[C@H]3CN3CCCCC3)CN(C(=O)Cc3ccc(Cl)cc3F)CC4)n(C)c2C)c2ccc(O)cc2)cc(C#N)n1C [Example 44, 5-{2-[2-(4-chloro-2-fluorophenyl)acetyl]-7-{[(3S)-3-(piperidin-1-ylmethyl)-3,4-dihydro-1H-isoquinolin-2-yl]carbonyl}-3,4-dihydro-1H-isoquinolin-6-yl}-N-(5-cyano-1,2-dimethylpyrrol-3-yl)-N-(4-hydroxyphenyl)-1,2-dimethylpyrrole-3-carboxamide] | 10.22 | 9.30 | 8.5 | 9.46 | 8.87 | 9.62 | 8.66 | 36.1 | 0.0073 | 12.2 | 0.0886
5 | Cc1c(N(C(=O)c2cc(-c3cc4c(cc3C(=O)N3Cc5ccccc5C[C@H]3C)CN(C(=O)Cc3ccc(OCCN5CCOCC5)cc3Cl)CC4)n(C)c2C)c2ccc(O)cc2)cc(C#N)n1C [Example 46, 5-[2-(2-{2-chloro-4-[2-(morpholin-4-yl)ethoxy]phenyl}acetyl)-7-[(3R)-3-methyl-1,2,3,4-tetrahydroisoquinoline-2-carbonyl]-1,2,3,4-tetrahydroisoquinolin-6-yl]-N-(5-cyano-1,2-dimethyl-1H-pyrrol-3-yl)-N-(4-hydroxyphenyl)-1,2-dimethyl-1H-pyrrole-3-carboxamide] | 9.85 | 9.52 | 2.4 | 9.64 | 9.46 | 9.70 | 8.82 | 10.7 | 0.0051 | 5 | 0.0256
6 | Cc1c(N(C(=O)c2cc(-c3cc4c(cc3C(=O)N3Cc5ccccc5C[C@H]3C)CN(C(=O)Cc3ccc(OCCN5CCN(CC(F)F)CC5)cc3)CC4)n(C)c2C)c2ccc(O)cc2)cc(C#N)n1C [Example 47, N-(5-cyano-1,2-dimethyl-1H-pyrrol-3-yl)-5-{2-[2-(4-{2-[4-(2,2-difluoroethyl)piperazin-1-yl]ethoxy}phenyl)acetyl]-7-[(3R)-3-methyl-1,2,3,4-tetrahydroisoquinoline-2-carbonyl]-1,2,3,4-tetrahydroisoquinolin-6-yl}-N-(4-hydroxyphenyl)-1,2-dimethyl-1H-pyrrole-3-carboxamide] | 9.96 | 9.70 | 2.0 | 9.62 | 9.34 | 9.80 | 8.70 | 18.9 | 0.008 | 4.5 | 0.0362
7 | Cc1c(N(C(=O)c2cc(-c3cc4c(cc3C(=O)N3Cc5ccccc5C[C@H]3C)CN(C(=O)Cc3ccc(C5CCN(CC(F)F)CC5)cc3F)CC4)n(C)c2C)c2ccc(O)cc2)cc(C#N)n1C [Example 48, N-(5-cyano-1,2-dimethylpyrrol-3-yl)-5-[2-(2-{4-[1-(2,2-difluoroethyl)piperidin-4-yl]-2-fluorophenyl}acetyl)-7-{[(3R)-3-methyl-3,4-dihydro-1H-isoquinolin-2-yl]carbonyl}-3,4-dihydro-1H-isoquinolin-6-yl]-N-(4-hydroxyphenyl)-1,2-dimethylpyrrole-3-carboxamide] | 9.30 | 8.89 | 2.6 | 9.10 | 7.99 | 8.79 | 8.03 | 18.8 | 0.0048 | 6.44 | 0.0268
